Assay results reported in US20240251792A1, “WEED CONTROL METHOD” (SYNGENTA CROP PROTECTION AG, priority 2021, published 2024).
Where two headings read alike, the source gives them in different places.

Tests used:
Format in all cases: in vivo
weeds and/or crops = assay: Post-emergence biological efficacy (Table 4); conditions: 1000 g/ha, evaluated after 13 days; for pest or weed control at 1000 g/ha: 312 h
Summary of the method: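 Weeds and crops were grown 14 days in a glasshouse, then sprayed post-emergence with compound formulated in acetone/F50 and diluted in 0.2% Genapol X080 to the final dose. Damage was scored after 13 days on a 0–100 scale, where 100 is total damage.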

AMARE [1] = assay: Biological efficacy, pre-emergence glasshouse test (Table 2); conditions: 1000 g/ha, after 12 days
Experimental: (§1) Seeds of a variety of test species were shown in unsterilised compost in small pots. After cultivation for one day (pre-emergence) or seven days (post-emergence) in controlled conditions in the glasshouse (at 24/16° C., day/night; 14 hours light; 65% humidity) the plants were sprayed with 1 mg of the active ingredient, formulated in 466 μl of a acetone/water/Tween 20 (49.75:49.75:0.5) solution, which is equivalent to 1000 g/ha. Once the foliage was dry, the pots were kept in the glasshouse (at 24/16° C., day/night; 14 hours light; 65% humidity), and were watered twice daily. After 12 days the test was evaluated and scored (100=total damage to plant, 0=no damage to plant).

DIGSA [2] = assay: as above; conditions: 1000 g/ha, after 12 days
Experimental: as §1

LOLPE [3] = assay: as above; conditions: 1000 g/ha, after 12 days
Experimental: as §1

STEME [4] = assay: as above; conditions: 1000 g/ha, after 12 days
Experimental: as §1

AMARE [5] = assay: Biological efficacy, post-emergence glasshouse test (Table 2); conditions: 1000 g/ha, after 12 days
Experimental: as §1

DIGSA [6] = assay: as above; conditions: 1000 g/ha, after 12 days
Experimental: as §1

LOLPE [7] = assay: as above; conditions: 1000 g/ha, after 12 days
Experimental: as §1

STEME [8] = assay: as above; conditions: 1000 g/ha, after 12 days
Experimental: as §1

AMARE [9] = assay: Pre-emergence biological efficacy (Table 3); conditions: 1000 g/ha, after 13 days; for pest or weed control at 1000 g/ha: Amaranthus retroflexus, 312 h, read-out: evaluation (100=total damage to plant; 0=no damage to plant)
Summary of the method: (§2)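 After sowing in pots and one day of glasshouse cultivation, spray is applied at the desired dose from a 50 g/l acetone/AMA stock diluted in 0.2% Genapol X080. Plants grow at 24/18 °C, 15 h light, 50% humidity, and damage is rated 0–100 after 13 days.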

SETFA = assay: Pre-emergence biological efficacy (Table 3); conditions: 1000 g/ha, after 13 days; for pest or weed control at 1000 g/ha: Setaria faberi, 312 h, read-out: evaluation (100=total damage to plant; 0=no damage to plant)
Summary of the method: as §2

SOLNI = assay: Pre-emergence biological efficacy (Table 3); conditions: 1000 g/ha, after 13 days
Summary of the method: as §2

IPOHE = assay: Pre-emergence biological efficacy (Table 3); conditions: 1000 g/ha, after 13 days; for pest or weed control at 1000 g/ha: Ipomoea hederacea, 312 h, read-out: evaluation (100=total damage to plant; 0=no damage to plant)
Summary of the method: as §2

ECHCG = assay: Pre-emergence biological efficacy (Table 3); conditions: 1000 g/ha, after 13 days; for pest or weed control at 1000 g/ha: Echinochloa crus-galli, 312 h, read-out: evaluation (100=total damage to plant; 0=no damage to plant)
Summary of the method: as §2

LOLPE [10] = assay: Pre-emergence biological efficacy (Table 3); conditions: 1000 g/ha, after 13 days
Summary of the method: as §2

[11] = Amaranthus retroflexus, AMARE, read-out: damage to plant AMARE (100=total damage; 0=no damage)
[12] = Echinochloa crus-galli, ECHCG, read-out: damage to plant ECHCG (100=total damage; 0=no damage)
[13] = Ipomoea hederacea, IPOHE, read-out: damage to plant IPOHE (100=total damage; 0=no damage)
[14] = Setaria faberi, SETFA, read-out: damage to plant SETFA (100=total damage; 0=no damage)

Row | Structure (SMILES) | damage to plant LOLPE (100=total damage; 0=no damage) (weeds and/or crops) | damage to plant SOLNI (100=total damage; 0=no damage) (weeds and/or crops) | score (100=total damage to plant, 0=no damage to plant) (AMARE [1]) | score (100=total damage to plant, 0=no damage to plant) (DIGSA [2]) | score (100=total damage to plant, 0=no damage to plant) (LOLPE [3]) | score (100=total damage to plant, 0=no damage to plant) (STEME [4]) | score (100=total damage to plant, 0=no damage to plant) (AMARE [5]) | score (100=total damage to plant, 0=no damage to plant) (DIGSA [6]) | score (100=total damage to plant, 0=no damage to plant) (LOLPE [7]) | score (100=total damage to plant, 0=no damage to plant) (STEME [8]) | evaluation (100=total damage to plant; 0=no damage to plant) (SOLNI) | evaluation (100=total damage to plant; 0=no damage to plant) (LOLPE [10]) | pest or weed control at 1000 g/ha (weeds and/or crops; [11]) | pest or weed control at 1000 g/ha (weeds and/or crops; [12]) | pest or weed control at 1000 g/ha (weeds and/or crops; [13]) | pest or weed control at 1000 g/ha (weeds and/or crops; [14]) | pest or weed control at 1000 g/ha (AMARE [9]) | pest or weed control at 1000 g/ha (SETFA) | pest or weed control at 1000 g/ha (IPOHE) | pest or weed control at 1000 g/ha (ECHCG) | other results
1 | COc1ccccc1C(F)(F)C(=O)O [Compound 1-9] | 0 | 60 | 80 | 0 | 0 | 60 | 90 | 0 | 0 | 80 | 90 | 20 |  |  |  |  |  |  |  |  | damage to plant AMARE (100=total damage; 0=no damage) (weeds and/or crops; AMARE): 70; damage to plant ECHCG (100=total damage; 0=no damage) (weeds and/or crops; ECHCG): 0; damage to plant IPOHE (100=total damage; 0=no damage) (weeds and/or crops; IPOHE): 60; damage to plant SETFA (100=total damage; 0=no damage) (weeds and/or crops; SETFA): 0; evaluation (100=total damage to plant; 0=no damage to plant) (AMARE [9]): 70; evaluation (100=total damage to plant; 0=no damage to plant) (SETFA): 20; evaluation (100=total damage to plant; 0=no damage to plant) (IPOHE): 60; evaluation (100=total damage to plant; 0=no damage to plant) (ECHCG): 20
2 | O=C(O)C(F)(F)c1cccc2ccccc12 [Compound 1-397, 2,2-Difluoro-2-(1-naphthyl)acetic acid] | 10 | 80 | 90 | 30 | 70 | 90 | 70 | 0 | 0 | 80 | 100 | 40 | 70% | 20% | 70% | 10% | 80% | 20% | 80% | 60% | 
3 | O=C(O)C(F)(F)c1c(Cl)ccc2cc(Cl)cnc12 [Compound 1-418, 2-(3,7-Dichloro-8-quinolyl)-2,2-difluoro-acetic acid] | 0 | 90 |  |  |  |  |  |  |  |  | 10 | 0 | 50% | 0% | 40% | 0% | 30% | 50% | 50% | 20% | 
4 | COC(=O)C(F)(F)c1c(Cl)cccc1OC [Compound 2-65, Methyl 2-(2-chloro-6-methoxy-phenyl)-2,2-difluoro-acetate] | 0 | 30 |  |  |  |  |  |  |  |  | 10 | 0 | 70% | 40% | 70% | 10% | 50% | 0% | 70% | 0% | 
5 | COC(=O)C(F)(F)c1c(Cl)ccc(Cl)c1OC [Compound 2-326, methyl 2-(3,6-dichloro-2-methoxy-phenyl)-2,2-difluoro-acetate] | 0 |  |  |  |  |  |  |  |  |  |  | 10 | 70% | 0% | 40% | 0% | 40% | 10% | 40% | 20% | 
6 | COC(=O)C(F)(F)c1c(Cl)ccc2cc(Cl)cnc12 [Compound 2-418, Methyl 2-(3,7-dichloro-8-quinolyl)-2,2-difluoro-acetate] | 0 |  |  |  |  |  |  |  |  |  |  | 0 | 70% | 0% | 80% | 0% | 60% | 20% | 50% | 10% | 
